From ChEMBL document CHEMBL6127124, “Structure-Activity Relationships and Discovery of (S)-5-(tert-Butyl)-11-(difluoromethoxy)-9-methoxy-2-oxo-1,2,5,6-tetrahydropyrido[2',1':2,3]imidazo[4,5-h]quinoline-3-carboxylic Acid (AB-161), a Novel Orally Available and Liver-Centric HBV RNA Destabilizer” (J Med Chem, 2024)

Legend:
[1] = Total AUC (0 to 24 hrs) in Beagle dog at 5 mg/kg, po qd measured after 91 days; assay type: ADME, organism-based, Canis lupus familiaris; settings: in vivo, time 91 day
RNA = experiment: Destabilization of HBV RNA assessed as decrease in HBsAg production by cell-based assay; settings: Hepatitis B virus
CYP2D6 = CYP2D6 (Homo sapiens, UniProt P10635); experiment: Inhibition of CYP2D6 in human liver microsomes using dextromethorphan as substrate preincubated for 30 min followed by NADPH addition measured after 12 mins by LC-MS/MS analysis; assay type: ADME, Microsome; settings: human, liver microsomes, probe dextromethorphan
Chain of CYP2D6 (P10635 whole entry): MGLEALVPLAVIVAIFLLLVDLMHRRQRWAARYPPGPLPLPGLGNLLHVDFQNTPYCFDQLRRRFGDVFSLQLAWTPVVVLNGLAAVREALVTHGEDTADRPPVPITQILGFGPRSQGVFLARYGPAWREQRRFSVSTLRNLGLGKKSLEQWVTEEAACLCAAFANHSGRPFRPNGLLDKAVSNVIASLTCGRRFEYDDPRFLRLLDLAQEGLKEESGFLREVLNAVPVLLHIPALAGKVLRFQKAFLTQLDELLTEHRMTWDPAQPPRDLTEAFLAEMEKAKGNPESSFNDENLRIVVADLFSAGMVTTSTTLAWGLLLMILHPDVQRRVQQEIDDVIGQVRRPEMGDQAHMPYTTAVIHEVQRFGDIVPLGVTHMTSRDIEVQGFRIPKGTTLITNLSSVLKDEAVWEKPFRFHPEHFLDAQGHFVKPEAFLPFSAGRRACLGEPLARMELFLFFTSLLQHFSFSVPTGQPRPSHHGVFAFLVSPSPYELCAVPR

[2] = Drug concentration in Sprague-Dawley rat plasma at 10 mg/kg, po measured for 24 hrs by LC-MS/MS analysis; assay type: ADME, organism-based; settings: read-out: Ct
[3] = Toxicity in Beagle dog assessed as splayed limbs at 60 mg/kg, po qd measured after 34 days; assay type: organism-based, Canis lupus familiaris; settings: in vivo, 816 h, time 34 day
[4] = Ratio of total drug concentration in liver to plasma in Sprague-Dawley rat at 10 mg/kg, po measured for 24 hrs by LC-MS/MS analysis; assay type: ADME, organism-based; settings: liver and plasma
[5] = Toxicity in Beagle dog assessed as uncoordinated movements at 15 mg/kg, po qd measured after 14 days; assay type: organism-based, Canis lupus familiaris; settings: in vivo, 336 h, time 14 day
[6] = Selectivity ratio of drug concentration in liver in Sprague-Dawley rat at 10 mg/kg, po measured for 24 hrs to EC90 for antiviral activity against HBV infected in human HepG2.2.15 cells assessed as reduction in HBsAg level; assay type: ADME, organism-based; settings: in vivo
[7] = Free AUC (0 to 24 hrs) in Beagle dog at 15 mg/kg, po qd measured after 91 days; assay type: ADME, organism-based, Canis lupus familiaris; settings: in vivo, 2184 h, time 91 day
Hepatitis B virus [8] = experiment: In vivo destabilization of HBV RNA in immuno-competent mouse model of chronic HBV assessed as log10 reduction in HBV DNA; assay type: functional
[9] = Total Cmax in Beagle dog at 45 mg/kg, po qd measured after 91 days; assay type: ADME, organism-based, Canis lupus familiaris; settings: in vivo, time 91 day
Hepatitis B virus [10] = experiment: Antiviral activity against HBV infected in immuno-competent mouse model assessed as log10 reduction serum HBsAg; assay type: functional
CYP3A4 = CYP3A4 (Homo sapiens, UniProt P08684); experiment: Inhibition of CYP3A4 in human liver microsomes using midazolam as substrate preincubated for 30 min followed by NADPH addition measured after 12 mins by LC-MS/MS analysis; assay type: ADME, Microsome; settings: human, liver microsomes, probe midazolam
Chain of CYP3A4 (P08684 whole entry): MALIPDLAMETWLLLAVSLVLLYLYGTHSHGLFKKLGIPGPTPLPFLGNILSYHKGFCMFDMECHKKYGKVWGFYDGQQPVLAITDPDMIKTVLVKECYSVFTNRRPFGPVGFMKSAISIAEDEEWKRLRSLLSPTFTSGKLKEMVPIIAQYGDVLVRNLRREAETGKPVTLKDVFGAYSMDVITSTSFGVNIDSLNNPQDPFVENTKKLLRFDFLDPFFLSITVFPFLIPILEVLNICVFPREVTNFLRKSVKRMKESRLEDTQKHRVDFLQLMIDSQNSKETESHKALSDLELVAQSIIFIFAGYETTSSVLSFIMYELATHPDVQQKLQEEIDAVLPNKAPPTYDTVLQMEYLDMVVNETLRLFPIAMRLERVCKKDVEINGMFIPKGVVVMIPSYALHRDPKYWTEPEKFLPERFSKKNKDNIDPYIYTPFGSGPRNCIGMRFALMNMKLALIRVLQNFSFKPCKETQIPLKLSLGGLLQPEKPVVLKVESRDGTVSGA

CYP2C19 = CYP2C19 (Homo sapiens, UniProt P33261); experiment: Inhibition of CYP2C19 in human liver microsomes using S-mephenytoin as substrate preincubated for 30 min followed by NADPH addition measured after 12 mins by LC-MS/MS analysis; assay type: ADME, Microsome; settings: human, liver microsomes, probe S-mephenytoin
Chain of CYP2C19 (P33261 whole entry): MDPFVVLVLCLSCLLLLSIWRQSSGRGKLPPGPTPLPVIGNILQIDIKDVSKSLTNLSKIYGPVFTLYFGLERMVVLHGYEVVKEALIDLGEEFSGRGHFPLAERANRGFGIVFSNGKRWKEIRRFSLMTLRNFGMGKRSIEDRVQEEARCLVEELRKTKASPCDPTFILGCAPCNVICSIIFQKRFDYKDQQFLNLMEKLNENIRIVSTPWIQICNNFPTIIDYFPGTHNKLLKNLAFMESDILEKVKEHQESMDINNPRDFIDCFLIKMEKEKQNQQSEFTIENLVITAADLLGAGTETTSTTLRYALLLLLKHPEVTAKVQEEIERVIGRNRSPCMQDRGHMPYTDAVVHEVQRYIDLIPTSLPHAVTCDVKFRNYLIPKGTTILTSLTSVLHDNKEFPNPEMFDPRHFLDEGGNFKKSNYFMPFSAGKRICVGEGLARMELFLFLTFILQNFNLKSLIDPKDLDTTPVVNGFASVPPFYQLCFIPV

[11] = Chemical stability of compound in PBS assessed as compound remaining measured after 6 days by HPLC UV analysis; assay type: physicochemical; settings: buffer, 144 h; time 6 day
[12] = Free AUC (0 to 24 hrs) in Beagle dog at 45 mg/kg, po qd measured after 91 days; assay type: ADME, organism-based, Canis lupus familiaris; settings: in vivo, 2184 h, time 91 day
[13] = AUC (0 to 24 hrs) in Sprague-Dawley rat at 10 mg/kg, po measured for 24 hrs by LC-MS/MS analysis; assay type: ADME, organism-based; settings: in vivo
[14] = Free Cmax in Beagle dog at 60 mg/kg, po qd measured after 91 days; assay type: ADME, organism-based, Canis lupus familiaris; settings: in vivo, 2184 h, time 91 day
[15] = Total Cmax in Beagle dog at 60 mg/kg, po qd measured after 91 days; assay type: ADME, organism-based, Canis lupus familiaris; settings: in vivo, time 91 day
[16] = Oral bioavailability in CD-1 mouse at 10 mg/kg measured for 24 hrs by LC-MS/MS analysis; assay type: ADME, organism-based; settings: in vivo
[17] = Toxicity in Beagle dog assessed as sporadic splayed limbs at 5 to 15 mg/kg, po qd measured after 38 days; assay type: organism-based, Canis lupus familiaris; settings: in vivo, 912 h, dose 5-15 mg/kg, time 38 day
CYP2C9 = CYP2C9 (Homo sapiens, UniProt P11712); experiment: Inhibition of CYP2C9 in human liver microsomes using diclofenac as substrate preincubated for 30 min followed by NADPH addition measured after 12 mins by LC-MS/MS analysis; assay type: ADME, Microsome; settings: human, liver microsomes, probe diclofenac
Chain of CYP2C9 (P11712 whole entry): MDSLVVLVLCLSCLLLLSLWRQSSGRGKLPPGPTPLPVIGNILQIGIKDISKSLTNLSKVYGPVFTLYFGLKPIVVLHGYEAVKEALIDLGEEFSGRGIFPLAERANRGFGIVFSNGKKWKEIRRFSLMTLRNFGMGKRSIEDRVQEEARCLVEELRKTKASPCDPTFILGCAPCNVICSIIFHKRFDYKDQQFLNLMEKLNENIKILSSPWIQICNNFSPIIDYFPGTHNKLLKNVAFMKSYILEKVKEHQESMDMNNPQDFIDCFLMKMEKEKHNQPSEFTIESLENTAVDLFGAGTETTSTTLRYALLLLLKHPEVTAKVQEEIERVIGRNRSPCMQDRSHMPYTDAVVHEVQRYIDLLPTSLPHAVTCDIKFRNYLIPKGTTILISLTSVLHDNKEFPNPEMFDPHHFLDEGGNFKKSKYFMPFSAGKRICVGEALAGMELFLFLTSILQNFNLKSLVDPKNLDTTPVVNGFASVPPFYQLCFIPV

[18] = Drug concentration in Sprague-Dawley rat heart at 10 mg/kg, po measured for 24 hrs by LC-MS/MS analysis; assay type: ADME, organism-based; settings: read-out: Ct
Hepatitis B virus [19] = experiment: Antiviral activity against HBV genotype D in immuno-competent C57BL/6 mouse model of chronic HBV assessed as log10 reduction in HBsAg production at 10 mg/kg, po qd for 7 days measured 24 hrs post-last dose by EIA relative to control; assay type: functional; settings: time 8 day
[20] = Toxicity in Beagle dog assessed as uncoordinated movements at 15 to 45 mg/kg, po qd measured after 60 days; assay type: organism-based, Canis lupus familiaris; settings: in vivo, 1440 h, dose 15-45 mg/kg, time 60 day
[21] = Toxicity in female Beagle dog assessed as fold decrease in cholesterol level at 15 to 45 mg/kg, po qd measured for 60 days; assay type: organism-based, Canis lupus familiaris; parameters: scale not given: the % may be the effect or the level left; settings: in vivo, 1440 h, dose 15-45 mg/kg, time 60 day
[22] = Toxicity in male Beagle dog assessed as fold increase in alanine aminotransferase level at 45 mg/kg, po qd measured for 60 days; assay type: organism-based, Canis lupus familiaris; settings: in vivo, 1440 h, time 60 day
[23] = Toxicity in male Beagle dog assessed as fold decrease in total protein level at 15 mg/kg, po qd measured for 60 days; assay type: organism-based, Canis lupus familiaris; parameters: scale not given: the % may be the effect or the level left; settings: in vivo, 1440 h, time 60 day
[24] = target: Voltage-gated inwardly rectifying potassium channel KCNH2 (Homo sapiens, UniProt Q12809); experiment: Inhibition of hERG; assay type: toxicity
Chain of Voltage-gated inwardly rectifying potassium channel KCNH2 (Q12809 whole entry): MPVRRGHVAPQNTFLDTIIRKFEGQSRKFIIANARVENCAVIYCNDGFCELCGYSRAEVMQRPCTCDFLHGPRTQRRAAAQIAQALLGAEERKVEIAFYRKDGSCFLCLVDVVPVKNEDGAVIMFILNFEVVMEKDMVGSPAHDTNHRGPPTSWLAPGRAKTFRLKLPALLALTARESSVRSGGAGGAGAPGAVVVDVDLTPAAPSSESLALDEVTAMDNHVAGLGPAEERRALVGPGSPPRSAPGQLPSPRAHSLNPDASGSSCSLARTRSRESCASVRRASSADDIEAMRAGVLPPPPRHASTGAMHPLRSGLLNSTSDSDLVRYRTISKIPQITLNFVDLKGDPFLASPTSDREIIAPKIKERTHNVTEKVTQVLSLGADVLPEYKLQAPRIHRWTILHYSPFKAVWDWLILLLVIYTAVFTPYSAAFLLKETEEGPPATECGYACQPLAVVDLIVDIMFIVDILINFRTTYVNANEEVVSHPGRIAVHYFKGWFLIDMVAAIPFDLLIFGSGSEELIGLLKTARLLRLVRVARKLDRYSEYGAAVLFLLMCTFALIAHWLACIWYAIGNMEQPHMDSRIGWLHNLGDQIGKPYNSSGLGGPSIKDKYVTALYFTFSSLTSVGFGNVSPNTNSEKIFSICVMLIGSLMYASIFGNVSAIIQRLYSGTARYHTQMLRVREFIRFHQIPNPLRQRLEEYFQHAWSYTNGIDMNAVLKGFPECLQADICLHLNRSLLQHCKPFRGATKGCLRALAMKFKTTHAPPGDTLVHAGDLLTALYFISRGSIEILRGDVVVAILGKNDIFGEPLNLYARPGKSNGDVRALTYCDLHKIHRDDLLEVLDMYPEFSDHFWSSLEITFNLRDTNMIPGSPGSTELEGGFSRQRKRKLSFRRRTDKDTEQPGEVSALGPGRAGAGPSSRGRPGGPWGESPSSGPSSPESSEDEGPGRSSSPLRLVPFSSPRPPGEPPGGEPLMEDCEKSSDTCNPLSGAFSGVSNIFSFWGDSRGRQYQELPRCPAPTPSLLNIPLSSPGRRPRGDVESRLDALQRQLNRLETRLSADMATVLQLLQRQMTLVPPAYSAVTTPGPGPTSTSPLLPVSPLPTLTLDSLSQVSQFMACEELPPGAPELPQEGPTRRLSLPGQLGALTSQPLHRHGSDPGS

[25] = Total Cmax in Beagle dog at 45 mg/kg, po qd measured after 60 days; assay type: ADME, organism-based, Canis lupus familiaris; settings: in vivo, time 60 day
Cytochrome P450 1A2 = target: T1, Cytochrome P450 1A2 (Homo sapiens, UniProt P05177); experiment: Inhibition of CYP1A2 in human liver microsomes using phenacetin as substrate preincubated for 30 min followed by NADPH addition measured after 12 mins by LC-MS/MS analysis; assay type: ADME, Microsome
T1 sequence (P05177 whole entry): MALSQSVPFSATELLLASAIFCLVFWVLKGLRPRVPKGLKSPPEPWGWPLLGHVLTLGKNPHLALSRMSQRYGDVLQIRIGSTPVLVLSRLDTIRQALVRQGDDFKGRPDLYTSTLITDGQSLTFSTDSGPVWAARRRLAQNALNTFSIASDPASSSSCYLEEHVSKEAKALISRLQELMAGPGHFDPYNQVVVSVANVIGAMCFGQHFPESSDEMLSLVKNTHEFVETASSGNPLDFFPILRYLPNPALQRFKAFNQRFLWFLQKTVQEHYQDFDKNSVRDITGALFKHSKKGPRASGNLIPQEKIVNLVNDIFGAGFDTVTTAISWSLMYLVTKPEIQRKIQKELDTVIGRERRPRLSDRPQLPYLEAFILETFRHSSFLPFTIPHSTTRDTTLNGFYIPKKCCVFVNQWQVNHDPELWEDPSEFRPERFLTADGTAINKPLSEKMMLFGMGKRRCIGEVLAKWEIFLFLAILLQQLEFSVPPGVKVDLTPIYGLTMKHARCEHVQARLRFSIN

[26] = Free AUC (0 to 24 hrs) in Beagle dog at 15 mg/kg, po qd measured after 60 days; assay type: ADME, organism-based, Canis lupus familiaris; settings: in vivo, 1440 h, time 60 day
[27] = Free Cmax in Beagle dog at 15 mg/kg, po qd measured after 60 days; assay type: ADME, organism-based, Canis lupus familiaris; settings: in vivo, 1440 h, time 60 day

COCCCOc1cc2c(nc1OC)-c1cc(=O)c(C(=O)O)cn1[C@H](C(C)C)C2
AUC at 2184 h [1]: 10500 ng·h/mL | EC50 (RNA): 1.4 nM | IC50 at 12 min (CYP2D6): > 25 µM | concentration at 24 h [2]: 28.2 ng/g | Activity [3]: Toxic | Kp at 24 h [4]: 3 | Activity [5]: Toxic | Ratio [6]: 5 | fAUC [7]: 11400 ng·h/mL | log(activity) (Hepatitis B virus [8]): <=0.94 | Cmax [9]: 27800 ng/mL | log(activity) (Hepatitis B virus [10]): <=0.94 | IC50 at 12 min (CYP3A4): > 25 µM | IC50 at 12 min (CYP2C19): > 25 µM | Stability [11]: Stable | fAUC [12]: 35300 ng·h/mL | AUC(0-t) at 24 h [13]: 13900 ng·h/mL | fCmax [14]: 6940 ng/mL | Cmax [15]: 18700 ng/mL | bioavailability [16]: 112% | Activity [17]: Toxic | IC50 at 12 min (CYP2C9): > 25 µM | concentration at 24 h [18]: 53 ng/g | log(activity) (Hepatitis B virus [19]): 0.98

COc1cc(OC(F)F)c2nc3c(n2c1)C[C@@H](C(C)(C)C)c1cc(C(=O)O)c(=O)[nH]c1-3
Activity [20]: Non-Toxic | Activity [21]: < 30% | fold change (FC) [22]: < 2 | Activity [23]: < 20% | IC50 [24]: > 30 µM | Cmax [25]: 17800 ng/mL | IC50 (Cytochrome P450 1A2): > 25 µM | fAUC [26]: 1830 ng·h/mL | fCmax [27]: 653 ng/mL

CC(C)(C)[C@@H]1Cc2c(nc3c(C(F)(F)F)cc(C4CC4)cn23)-c2[nH]c(=O)c(C(=O)O)cc21
IC50 (Cytochrome P450 1A2): > 25 µM
